Test results: US20250034164A1, “NOVEL COMPOUND AND COMPOSITION FOR PREVENTING OR TREATING NEUROINFLAMMATORY BRAIN DISEASES COMPRISING SAME AS ACTIVE INGREDIENT” (KOREA INSTITUTE OF OCEAN SCIENCE & TECHNOLOGY, priority 2021, published 2025)
pIC50: −log10 of the molar value.

How the values were obtained:
[1] = test system: nitric oxide (NO) produced in mouse BV-2 microglia cells stimulated with LPS; experiment: NO production inhibition in LPS-stimulated BV-2 microglia cells (Griess reagent); format: cell-based; conditions: LPS 200 ng/ml; for pIC50: mouse BV-2 microglia cells, 24 h, read-out: NO inhibitory activity (IC50 value)
Procedure: (§1) BV-2 microglia cells were cultured in a humidified 5% CO2 incubator at 37° C. using a Dulbecco's modified Eagle medium supplemented with 5% fetal bovine serum and 1% penicillin/streptomycin at 100 units/mL.
In all experiments, the number of cells was 2.5×10^5 cell/ml, the cells were first treated with each of Compounds of Examples 1 to 25 by concentration (2.5 to 200 μg/ml), and LPS was diluted in medium and used at a concentration of 200 ng/ml. A cytotoxicity test was performed using MTT assay, and the MTT assay was performed by performing NO assay and injecting 30 μl of MTT at a concentration of 0.5 mg/ml into the cells in a microplate. After reacting for 2 hours in the incubator, formazan crystals were dissolved in 100 μl of DMSO, and the absorbance was measured using a Vmax microplate reader (Tencan Co., Switzerland) with a wavelength of 540 nm. In order to quantitatively measure the production of nitric oxide (NO), mouse BV-2 microglia cells were prepared in a microplate (96 well), and added with LPS (200 ng/ml) and Compounds by concentration (2.5 to 200 μg/ml). The cells reacted in an incubator for 24 h, and 50 μl of the supernatant reacted with a Griess reagent (a mixed solution of 1% sulfanilamide, 0.1% N-(1-naphthyl)-ethylenediamine dihydrochloride, and 2.5% H3PO4), and then the absorbance was measured using a Vmax 96-well microplate spectrophotometer with a wavelength of 550 nm.
In order to analyze the anti-inflammatory efficacy of Compound of Example 1, the concentration inhibitory effect of nitric oxide (NO) produced in mouse BV-2 microglia cells stimulated with LPS (200 ng/ml), a neuroinflammatory factor, was confirmed.
The neuroinflammation inhibitory effects of Compounds of Examples 2 to 25 were confirmed.
In order to analyze the anti-inflammatory efficacy of Compound 26 of Chemical Formula 2, the concentration inhibitory effect of nitric oxide (NO) produced in mouse BV-2 microglia cells stimulated with LPS (200 ng/ml), a neuroinflammatory factor, was confirmed. Compound 26 of Chemical Formula 2 was purchased from Santa Cruz biotechnology (CAS 79127-35-8) and the experiment was performed. As a result of treating Compound of Chemical Formula 2 at […], it was confirmed that the amount of nitric oxide (NO) was reduced, as shown in FIG. 37A.

IL1-β = IL1-β gene expression in LPS-stimulated BV-2 microglia cells (RT-PCR); format: cell-based, mouse; conditions: BV-2 cells, pretreated 1 hour at 2 to 80 μg/ml, LPS 200 ng/ml, 6 hours
Procedure: as §1
(§2) Then, the cells were stimulated with LPS (200 ng/ml). After 6 hours, the cell supernatant was removed, RNA was identified from the cells, and TNF-α, IL1-β, and IL-6 genes were analyzed by RT-PCR. As a result, as shown in FIGS. 30(d), 35(d), and 36(d), it could be confirmed that natural product compound 1 and derivative compounds 4 and 6 decreased the expression levels of TNF-α, IL1-β, and IL-6 genes in a concentration-dependent manner.

TNF-α = TNF-α gene expression in LPS-stimulated BV-2 microglia cells (RT-PCR); format: cell-based, mouse; conditions: BV-2 cells, pretreated 1 hour at 2 to 80 μg/ml, LPS 200 ng/ml, 6 hours
Procedure: as §1, §2

IL-6 = IL-6 gene expression in LPS-stimulated BV-2 microglia cells (RT-PCR); format: cell-based, mouse; conditions: BV-2 cells, pretreated 1 hour at 2 to 80 μg/ml, LPS 200 ng/ml, 6 hours
Procedure: as §1, §2

[2] = test system: cyclooxygenase type 2 (COX-2); experiment: COX-2 protein and gene expression in LPS-treated BV-2 cells (Western blot, RT-PCR); format: cell-based, mouse; conditions: LPS 200 ng/ml, 2 to 80 μg/ml, protein 18 hours, gene 6 hours
Procedure: as §1
(§3) After culturing for 18 hours, the proteins were identified, and the expression patterns of iNOS and COX-2 proteins were confirmed by performing Western blot using polyclonal antibodies to iNOS and COX-2. For 6 hours after culturing the BV-2 cells by setting the same conditions, the cell supernatant was removed, RNA was identified from the cells, and iNOS and COX-2 genes were analyzed by RT-PCR. As a result, as shown in FIGS. 30(c), 35(c), and 36(c), it could be confirmed that natural product Compound 1 and derivative Compounds 4 and 6 decreased the expression levels of iNOS and COX-2 proteins and genes in a concentration-dependent manner.

[3] = test system: inducible nitric oxide synthase (iNOS); experiment: iNOS protein and gene expression in LPS-treated BV-2 cells (Western blot, RT-PCR); format: cell-based, mouse; conditions: LPS 200 ng/ml, 2 to 80 μg/ml, protein 18 hours, gene 6 hours
Procedure: as §1, §3

Compound | amount of nitric oxide (NO) ([1]; BV-2 cells, treated at 20 to 60 μM (FIG. 30A)) | pIC50 [1] | expression levels of IL1-β gene (IL1-β) | expression levels of TNF-α gene (TNF-α) | expression levels of IL-6 gene (IL-6) | expression levels of COX-2 proteins and genes [2] | expression levels of iNOS proteins and genes [3]
O=C1O[C@@H]2OC(CO)=C[C@H]3[C@@H]2C=C[C@@H]13 [Compound 1, (1S,4aS,5R,7aS)-3-(hydroxymethyl)-1,4a,5,7a-tetrahydro-1,5-(epoxymethano)cyclopenta[c]pyran-8-one] | reduced | 4.33 | decreased | decreased | decreased | decreased | decreased
O=C(OCC1=C[C@H]2[C@@H]3C=C[C@H]2C(=O)O[C@@H]3O1)c1ccc(Br)cc1 [Compound 4, ((1S,4aS,5R,7aS)-8-oxo-1,4a,5,7a-tetrahydro-1,5-(epoxymethano)cyclopenta[c]pyran-3-yl)methyl 4-bromobenzoate] | – | 4.88 | decreased | decreased | decreased | decreased | decreased
O=CC1=C[C@H]2[C@@H]3C=C[C@H]2C(=O)O[C@@H]3O1 [Compound 6, (1S,4aS,5R,7aS)-8-oxo-1,4a,5,7a-tetrahydro-1,5-(epoxymethano)cyclopenta[c]pyran-3-carbaldehyde] | – | 5.35 | decreased | decreased | decreased | decreased | decreased
